Legend:
hROMK (hKir1.1) = biological target: T1, hROMK (hKir1.1) (Homo sapiens, UniProt P48048); assay: Thallium Flux Assay (FluxOR, FLIPR-Tetra); assay type: cell-based; details: HEK293 cells stably expressing hROMK; potency ranges
T1 construct: expressed in transfected cells
T1 sequence (P48048 1-391): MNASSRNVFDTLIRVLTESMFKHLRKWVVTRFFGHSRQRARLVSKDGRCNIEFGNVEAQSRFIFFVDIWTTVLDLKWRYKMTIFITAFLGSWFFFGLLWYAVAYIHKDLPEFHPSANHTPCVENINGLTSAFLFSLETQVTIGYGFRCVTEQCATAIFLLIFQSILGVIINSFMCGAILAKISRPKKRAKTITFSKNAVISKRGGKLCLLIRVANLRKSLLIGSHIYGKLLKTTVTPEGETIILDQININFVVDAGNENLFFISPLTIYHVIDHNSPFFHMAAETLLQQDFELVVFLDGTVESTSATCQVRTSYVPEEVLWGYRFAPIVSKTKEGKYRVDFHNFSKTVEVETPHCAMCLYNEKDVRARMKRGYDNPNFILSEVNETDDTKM
Procedure: Several assays may be used to measure functional inhibition of the ROMK channel by compounds of the instant invention. One primary assay that can be used is a functional ^86Rb^+ efflux assay that measures the ability of ROMK to permeate ^86Rb^+, in the absence or presence of test compound. Under control conditions, cells loaded with ^86Rb^+ and incubated in Rb^+-free medium display a time-dependent efflux of the isotope, the rate of which depends on number of functional channels. When cells are incubated in the presence of a channel inhibitor, efflux of ^86Rb^+ is prevented in a concentration-dependent manner, and IC50 values of inhibition by compounds can be accurately determined. This assay has been established with cell lines expressing either human, rat or dog ROMK channels, and can operate in 96- or 384-well format. Importantly, the human, rat, and dog ^86Rb^+ efflux assays can be carried out in the presence of up to 100% serum allowing, therefore, an accurate estimation of the effect of protein binding on the inhibitory activity of compounds of interest. Another ROMK functional assay makes use of the ability of thallium to permeate through open ROMK channels and increase the fluorescence of a dye previously loaded into the cells. Under control conditions, cells loaded with dye and exposed to thallium-containing medium display a time-dependent increase in fluorescence, the rate of which depends on number of functional channels. When cells are incubated in the presence of a channel inhibitor, the increase in fluorescence is attenuated in a concentration-dependent manner, and IC50 values of inhibition by compounds can be accurately determined. This assay has been established with cell lines expressing either human, or rat ROMK channels, and operates in 384-well format. Another assay for evaluation of the compounds of the instant invention and for evaluation of mechanism of action of compounds of Formula I relies on the measurement of the electrical current that is generated as potassium permeates through the channel. For these electrophysiological experiments, three different platforms, IonWorks, QPatch, or manual patch clamp, are used, depending on the experimental protocol under consideration. IonWorks operates in a 384-well format and allows accurate determination of IC50 values for inhibitors.
HEK293 cells stably expressing hROMK (hKir1.1) were grown at 37° C. in a 10% CO2 humidified incubator in complete growth media: Dulbecco's Modified Eagle Medium supplemented with non-essential amino acids, Penicillin/Streptomycin/Glutamine, G418 and FBS. At >80% confluency, media was aspirated from the flask and rinsed with 10 ml Calcium/Magnesium-free PBS. 5 ml of 1× trypsin (prepared in Ca/Mg Free PBS) was added to T-225 flask and flask returned to 37° C./CO2 incubator for 2-3 minutes. To dislodge the cell, the side of the flask was gently banged by hand. Cells were completely triturated and then transferred to 25 ml complete media, and centrifuged at 1,500 rpm for 6 min followed by resuspension in complete growth media and cell concentration determined. For typical re-seeding, 4E6 cells/T-225 flask attained >80% confluency in 4 days. Under ideal growth conditions and appropriate tissue culture practices, this cell line was stable for 40-45 passages.
FluxOR™ Kit Components (Invitrogen F10017)
• FluxOR™ Reagent (Component A) • FluxOR™ Assay Buffer (Component B)—10× Concentrate • PowerLoad™ Concentrate (Component C)—100× Concentrate • Probenecid (Component D)—Lyophilized sample was kept at −20° C. Water soluble, 100× after solubilization in 1 ml water. Store at 4° C. • FluxOR™ Chloride-free Buffer (Component E)—5× Concentrate • Potassium sulfate (K2SO4) Concentrate (Component F)—125 mM in water. Stored at 4° C. • Thallium sulfate (Tl2SO4) Concentrate (Component G)—50 mM in water. […]

hROMK1 (Kir1.1) = biological target: T2, hROMK1 (Kir1.1) (Homo sapiens, UniProt P48048); assay: ^86Rb^+ Efflux Assay; assay type: cell-based; details: CHO-DHFR- cells stably expressing hROMK1; potency ranges
T2 construct: expressed in transfected cells
T2 sequence (P48048 1-391): T1 sequence (P48048 1-391)

| Structure (SMILES) | IC50 (hROMK (hKir1.1)) [nM] | IC50 (hROMK1 (Kir1.1)) [nM] |
| --- | --- | --- |
| Cc1c(C(O)CC2CCN(C[C@H](O)c3ccc4c(c3C)COC4=O)CC2)ccc2c1COC2=O (stereo partly drawn) [Example 86, 5-[(1R)-1-Hydroxy-2-{4-[2-hydroxy-2-(4-methyl-1-oxo-1,3-dihydro-2-benzofuran-5-yl)ethyl]piperidin-1-yl}ethyl]-4-methyl-2-benzofuran-1(3H)-one] | ≤ 100 | ≤ 200 |
| Cc1c(CCN2CCC(NCc3ccc(C#N)c(F)c3)CC2)ccc2c1COC2=O [Example 90, 2-Fluoro-4-[({1-[2-(4-methyl-1-oxo-1,3-dihydro-2-benzofuran-5-yl)ethyl]piperidin-4-yl}amino)methyl]benzonitrile] | ≤ 200 | ≤ 500 |

Reference: patent publication US9527830B2 (Merck Sharp & Dohme Corp., priority 2011, dated 2016)
